The results in this text go back to paper PMC4198064 (ACS Chemical Neuroscience, 2014).

Each structure is given as a SMILES string.

This experiment deals with HDAC subtypes 1, 2, 3, and 6. Put plainly: [11C]martinostat PET imaging of whole rat brain, blocked tracer binding. The class given is in vivo.

On to `Nc1cc(F)ccc1NC(=O)/C=C/c1cnn(C/C=C/c2ccccc2)c1` [RGFP966], for which, under “subtype-selective benzamides, ip pretreatment”, the “blockade of [11C]martinostat binding in whole brain” value is listed as 7–10%.

`CCCC(CCC)C(=O)O` [sodium valproate]: the “blockade of [11C]martinostat uptake in whole brain” value (500 mg/kg ip, 30 min prior to tracer) amounted to 16%.
